Source: patent US20240300908A1, “CHIRAL 3-SULFINYL BENZOIC ACIDS” (BAYER AKTIENGESELLSCHAFT, priority 2021, published 2024)

Assay: HPLC (H3PO4) log P determination
Format: physicochemical

chromatographic logP | SMILES | log P
– | C[S+]([O-])c1c(C(F)(F)F)ccc(C(=O)O)c1Cl (racemic) [Example 1 Step 1, 2-chloro-3-[(S,R)-methylsulfinyl]-4-(trifluoromethyl)benzoic Acid] | 0.96
1 | C[S@+]([O-])c1c(C(F)(F)F)ccc(C(=O)O)c1Cl [Example 1, 2-chloro-3-[(S)-methylsulfinyl]-4-(trifluoromethyl)benzoic acid] | –
